Data published in patent US20210261495A1, “COMPOSITIONS AND METHODS OF USING ITACONIC ACID DERIVATIVES” (ERGON PHARMACEUTICALS, LLC, priority 2018, published 2021).

Columns and labels:
H3K4me3 = assay: Epigenetic modification: H3K4me3 Western immunoblotting in TCR-activated hCD8+ T cells; type: cell-based, human; settings: 10 μM, 72 hrs
Procedure: Epigenetic Modifications. The ability of a therapeutic agent to alter acetylation and/or methylation of histones was assessed by Western Immunoblotting. Briefly, immune and other type cells were collected after being exposed to the therapeutic agent or vehicle control for a specific period of time, typically 24-72 hrs. They were then lysed and cell lysates from control and treated cells contained equal amounts of proteins were subjected to SDS-PAGE electrophoresis. The presence of acetylated and methylated histone sites was determined by Western Immunoblotting using appropriate antibodies.
Epigenetic Modification. TCR-activated hCD8^+ T cells were exposed to 0 or 10 μM Compound (6) for 72 hrs prior to lysing. Equal amounts of cell lysates were subjected to gel electrophoresis and Western immunoblotting against trimethylated lysine site 4 of histone 3 (H3K4me3). The experiment also included cell lysates from naïve cells. Image J was used for protein quantification. Western immunoblotting against histone 3 (H3) was also performed for normalization purposes. […] Exposure of the hCD8^+ T cells to 10 μM Compound (6) led to the depletion of trimethylated H3K4. H3K4me3 is commonly associated with activation of transcription.

[1] = test system: C6-IRG1-9 rat glioma cells; assay: C6-IRG1-9 rat glioma cell proliferation, CyQuant; type: cell-based; settings: various concentrations, 48 hrs
Procedure: Tumor Cell Proliferation Assay. This assay was used to assess the anti-tumor properties of a therapeutic agent in vitro. In a typical proliferation assay, cells were cultured to near confluency in the appropriate media. Subsequently, the cells were trypsinized and plated onto 96-well plates at 2,000 or 5,000 cell per well. The cells were cultured for 48 to 96 hours in the presence or absence of the therapeutic agent. Cell proliferation was then determined using spectrophotometry (MTT assay, BrdU assay) or fluorimetry (Cyquant assay).
Inhibition of C6-IRG1-9 Rat Glioma cell proliferation. C6-IRG1-9 cells are rat C6 glioma cells that have been transfected to overexpress IRG1. Overexpression of IRG1 is maintained by culturing the cells in DMEM media containing 0.55 μg/mL puromycin. For the proliferation assays, the cells were plated onto a 96-well plate at a density of 2,000 cells/well. The cells were allowed to adhere overnight; they were subsequently treated with various concentrations of compounds of Formula (2) for 48 hrs. At the end of the incubation period, the number of cells is assessed using the CyQuant Cell Proliferation kit (Thermo Fisher) according to the manufacturer's instructions. The results, shown in FIG. 3, indicate that compounds of Formula (2) are able to reduce or abrogate growth of C6-IRG1-9 cells. In FIG. 3, cell proliferation is expressed as % Untreated Control, defined as: […]
where t is the number of cells present in a treated well at the end of the incubation period, c is the number of cells present in an untreated well at the end of the incubation period, and s is the initial number of cells in the wells prior to initiation of treatment.

[2] = test system: CT26 mouse colorectal tumors; assay: Survival and tumor growth of CT26 tumor-bearing mice; type: in vivo, C57BL/6 mice
Procedure: In Vivo Anti-Tumor Effect. The anticancer properties of the therapeutic agent were evaluated in vivo by determining the ability of the agent to suppress tumor growth and/or increase survival of tumor-bearing animals. In a typical experiment, 0.1-1×10^6 tumor cells, suspended in PBS containing 20% Matrigel, were injected subcutaneously in the right flank of each mouse. When the tumors became palpable, the animals were randomized into different groups and treatment began. In vivo tests routinely included a vehicle control group and different doses and/or routes of administration of the therapeutic agent. Tumor growth was assessed using calipers and the following formula:
Tumor Volume=length×width×width×½
The Kaplan-Meier analysis was used to estimate the survival probability of the tumor-bearing animals.
C57BL/6 mice were injected subcutaneously in the right flank with 1×10^5 CT26 mouse colorectal tumor cells, suspended in PBS containing 20% Matrigel. The tumors were allowed to grow to −100 mm^3. The mice were randomized into two groups (n=6 animals/group): one group received vehicle control and the other group was treated with i.p. injections of 0.2 mg/kg Compound (6) twice a week (Tuesday-Thursday). The experiment continued for 27 days, at which point the mortality rate of control animals was 80%. […] The experiment was repeated (FIG. 6B). In FIG. 6B, treated animals received oral administrations of 3 mg/kg Compound (6) twice a day.

hCD8^+ T cells = assay: hCD8+ T cell differentiation into effector T cells: GZMB release, ELISA; type: cell-based, human; settings: for Granzyme B (% Control): 72 hrs, normalized per number of cells
Procedure: Differentiation of T Cells. The ability of T cells to differentiate from a naïve to an effector state was assessed by measuring the levels of IFNγ or GZMB synthesis following activation of the cells using a cocktail of anti-CD2/anti-CD3/anti-CD28 antibodies. Expression of IFNγ, GZMB, and other effector cytokines was measured by determining their concentration in the conditioned media 24-72 hrs after initiation of activation or by estimating the % cells expressing these cytokines using fluorescence-activated cell sorting (FACS).
Augmentation of hCD8^+ T Cell Differentiation into Effector T Cells. Naïve CD8+ T cells were isolated from human buffy coats using magnetic separation and the appropriate kit from Miltenyi Biotec. Cells were then activated using a cocktail of anti-CD2/anti-CD3/anti-CD28 antibodies. Differentiation of the cells into effector T cells was assessed by determining the levels of IFNγ and GZMB released into the media at 24 and 72 hrs, respectively using appropriate ELISA kits. Cytokine concentrations were normalized per number of cells present and expressed as % Untreated Control.

M-MDSCs = assay: Tumor immunophenotyping of CT26 tumors (MDSCs); type: in vivo, mice; settings: 0.2 mg/kg ip, CT26 tumors 250-1500 mm^3
Procedure: Tumor Immunophenotyping. To determine the effect of a therapeutic agent on a specific immune cell type in vivo, syngeneic tumor models were employed. In a typical experiment, tumors were allowed to grow to a certain size and were then treated for a specific number of days prior to termination. At the end of the experiment, animals were euthanized, tumors were excised and single cell suspensions were immediately obtained through dissociation of tumor tissues with collagenase. Tumor cell suspensions were then subject to FACS analysis in order to determine the presence of various biomarkers.
Tumor Immunophenotyping of CT26 Tumors. CT26-tumor bearing mice treated with either vehicle control or 0.2 mg/kg Compound (6) (ip, twice a day) were euthanized when the tumors had reached a size of 250-1500 mm^3. Tumors were excised and single cell suspensions were obtained using the tumor dissociation kit from Miltenyi Biotec per manufacturer's instructions. The suspensions were analyzed for the presence of MDSCs.

[3] = 3 mg/kg oral twice a day, end of experiment

Question: Which results are given for `O=C(O)/C(=C\c1ccc(F)cc1)C(Cc1ccccc1)C(=O)O` (stereo not shown) [Compound (6), 2-benzyl-3-[(4-flurophenyl)methylidene]butanedioic acid]?
Answer: trimethylated H3K4 (H3K4me3/H3) (H3K4me3): depletion; proliferation of C6-IRG1-9 rat glioma cells [1]: inhibition of proliferation; survival (Kaplan-Meier) ([2]; 0.2 mg/kg i.p. twice a week, 27 days, vs vehicle control): survival advantage; animals with complete tumor regression [2, 3]: 1/6; mice with slower tumor growth [2, 3]: 5/6; survival (Kaplan-Meier) ([2]; 3 mg/kg orally twice a day): increased survival; Granzyme B (% Control) (hCD8^+ T cells; 0.1 nM): 117 % Control; Granzyme B (% Control) (hCD8^+ T cells; 1 nM): 165 % Control; Granzyme B (% Control) (hCD8^+ T cells; 10 nM): 504 % Control; Granzyme B (% Control) (hCD8^+ T cells; 100 nM): 276 % Control; Granzyme B (% Control) (hCD8^+ T cells; 10 μM): 360 % Control; production of GZMB (hCD8^+ T cells; low concentrations): increase production; intratumoral frequency of M-MDSCs (M-MDSCs): significantly reduces
